Results taken from PubChem BioAssay (NCI).
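Cells were grown in 96-well plates and exposed to each compound for 48 hours at five concentrations; endpoints were interpolated linearly between bracketing concentrations, or set to the highest concentration if not reached. GI50 marks 50% less growth. TGI marks complete inhibition of growth.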

Columns and labels:
Experiment in all cases: inhibition of tumour cell growth, NCI panel, 48 h
[1] = tested on: RXF 393 renal
[2] = tested on: OVCAR-3 ovarian
[3] = tested on: SR leukemia
[4] = tested on: EKVX NSCLC
[5] = tested on: OVCAR-5 ovarian
[6] = tested on: M14 melanoma
[7] = tested on: HL-60(TB) leukemia
[8] = tested on: SK-MEL-2 melanoma
[9] = tested on: TK-10 renal
[10] = tested on: PC-3 prostate

Structure (SMILES) | TGI [1] | TGI [2] | TGI [3] | TGI [4] | TGI [5] | TGI [6] | TGI [7] | TGI [8] | TGI [9] | GI50 [1] | GI50 [2] | GI50 [3] | GI50 [10] | TGI [10] | GI50 [5] | GI50 [6] | GI50 [8] | GI50 [9] | GI50 [4] | GI50 [7]
C=C1c2[nH]c3c([N+](=O)[O-])c(OC)ccc3c2CCN1C(C)=O | > 100 µM | > 100 µM | > 100 µM | > 100 µM | > 100 µM | > 100 µM | > 100 µM | > 100 µM | > 100 µM | – | – | – | – | – | – | – | – | – | – | –
O=[N+]([O-])c1cccc([As]=[As]c2cccc([N+](=O)[O-])c2)c1 (stereo unspecified) | 0.23 µM | 0.16 µM | 0.1 µM | – | 0.216 µM | 0.287 µM | – | 0.272 µM | 0.266 µM | 0.0898 µM | 0.0499 µM | 0.0275 µM | 0.147 µM | 0.297 µM | 0.0891 µM | 0.136 µM | 0.13 µM | 0.132 µM | – | –
CN(C(=O)c1ccco1)C(=S)N1CCN(c2ccccc2)CC1 | > 100 µM | > 100 µM | > 100 µM | – | > 100 µM | > 100 µM | > 100 µM | > 100 µM | > 100 µM | – | – | – | – | – | – | – | – | – | – | –
COC(=O)C1=CC2C(=O)OC1CC2C#N (stereo unspecified) | – | > 100 µM | > 100 µM | – | – | > 100 µM | > 100 µM | – | > 100 µM | – | – | – | – | – | – | – | – | – | – | –
[N-]=[N+]=NC(CI)c1cn([C@H]2C[C@H](O)[C@@H](CO)O2)c(=O)[nH]c1=O (stereo partly specified) | > 100 µM | > 100 µM | > 100 µM | > 100 µM | > 100 µM | > 100 µM | > 100 µM | > 100 µM | > 100 µM | – | – | – | – | – | – | – | – | – | – | –
CC(=O)C1C(=O)C(=O)N(c2ccccc2C(C)C)C1=O (stereo unspecified) | > 100 µM | > 100 µM | – | > 100 µM | > 100 µM | > 100 µM | > 100 µM | > 100 µM | > 100 µM | – | – | – | – | – | – | – | – | – | – | –
O=C1CC(S(=O)(=O)O)C=C1Nc1cccc(Cl)c1 (stereo unspecified) | > 100 µM | > 100 µM | > 100 µM | > 100 µM | > 100 µM | > 100 µM | > 100 µM | > 100 µM | > 100 µM | – | – | – | – | – | – | – | – | – | – | –
CN1c2ccccc2N(C)C23N(C)c4ccccc4N(C)C12N(C)c1ccccc1N3C (stereo unspecified) | > 100 µM | > 100 µM | – | > 100 µM | > 100 µM | > 100 µM | > 100 µM | > 100 µM | > 100 µM | – | – | – | – | – | – | – | – | – | – | –
Clc1nc(Cl)c2ncn(C/C=C/COc3cccc(OC/C=C/Cn4cnc5c(Cl)nc(Cl)nc54)c3)c2n1 | > 100 µM | > 100 µM | – | > 100 µM | > 100 µM | > 100 µM | 27.8 µM | > 100 µM | > 100 µM | 65 µM | 95 µM | – | 42 µM | > 100 µM | > 100 µM | 32.7 µM | > 100 µM | > 100 µM | > 100 µM | 14.7 µM
COc1ccc2ccccc2c1C1OC(=O)c2ccccc21 (stereo unspecified) | – | > 100 µM | – | > 100 µM | > 100 µM | > 100 µM | > 100 µM | – | > 100 µM | – | – | – | – | – | – | – | – | – | – | –
